Measured values reported in US11021444B2, “Antiviral compounds” (priority 2013, dated 2021).
Read-outs that look alike come from different tables or passages of the source.

Tests used:
recombinant RSV complex = recombinant RSV complex (Human respiratory syncytial virus A, UniProt P28887); assay: RSV Polymerase Inhibition Assay; assay type: biochemical
Protocol: Standard RSV polymerase assays were conducted in the presence of 10 nM recombinant RSV complex in a reaction buffer containing Tris-HCl pH7.5, 6 mM MgCl2, and other additives and substrates including RNA oligonucleotides and radionucleotides. Standard reactions were incubated in 96-well plate format for 2 h at 30° C., in the presence of increasing concentration of inhibitor. The reaction was stopped with 90 μL of 0.1M EDTA, and the reaction product was transferred to a “reading” 96-well plate. After washing of the plate, radiolabeled RNA products were detected according to standard procedures with a Trilux Topcount scintillation counter.

[1] = test system: Respiratory Syncytial Virus (RSV) long strain; assay: microbe, parasite or virus in culture; assay type: cell-based; conditions: human respiratory syncytial virus, Tables A and B list compounds by EC50 band
Protocol: (§1) CPE reduction assays are performed as described by Sidwell and Huffman et al., Appl. Microbiol. (1971) 22(5):797-801 with slight modifications. HEp-2 cells (ATCC #, CCL-23) are seeded at a density of 1,500 cells/30 μl/well into the 384-well cell plate(s) (Corning #3701) one day prior to the assay. Compounds are added into 384-well cell plates by Labcyte POD 810 Plate Assembler system. Each of the test compounds is provided to duplicate wells of a 384-well cell plate at final concentrations starting from 100 μM or 1 μM using 1/3 stepwise dilutions for 9 points. Quick-thaw Respiratory Syncytial Virus (RSV) long strain (ATCC #VR-26) stock in a 37° C. water bath. Place on ice until ready to use. Viruses are diluted to the concentration of 100 TCID50/30 μL with medium and 30 μl diluted RSV are added into related wells of 384-well cell plates. For each plate, sixteen wells are set aside as uninfected, untreated cell controls (CC), and nine wells per test plate receive virus only as a control for virus replication (VC). The final DMSO concentration of all wells is 1%. Place the plates at 37° C., 5% CO2 for 5 days.
After 5 days incubation, observe the CPE of cells in all wells. […] Six μl of cell counting kit-8 reagent (CCK-8, Dojindo Molecular Technologies Inc., CK04-20) are added to each well, which allows colorimetric assays to determine the number of viable cells through the dehydrogenase activity detection. After 3-4 hour incubation, the absorbance of each well is measured with a spectrophotometric plate reader at 450 nm wavelength, using a 630 nm filter as background according to manufacturer's instruction.

[2] = Cytotoxicity Determination (CCK-8, without addition of virus); assay type: cell-based; conditions: human, 50% cytotoxicity concentration (CC50)
Protocol: as §1
In order to determine the compound cytotoxicity, in parallel, each of the compounds is applied to duplicate wells in a 384-well cell plate at serial final concentrations starting from 100 μM using 1/2 stepwise dilutions for 7 points without addition of virus. Incubate the cells at 37° C., 5% CO2 for 5 days. Add 6 μL CCK-8 into each well and incubate in a CO2 incubator at 37° C. for 3-4 hours.

[3] = HEp-2, 120 h, read-out: 50% effective concentration (EC50), HEp-2 cells infected with RSV long strain, 5 days, CCK-8 readout
[4] = 120 h, read-out: 50% effective concentration (EC50), HEp-2 cells infected with RSV long strain, 5 days, CCK-8 readout

Sequence of recombinant RSV complex (P28887 whole entry): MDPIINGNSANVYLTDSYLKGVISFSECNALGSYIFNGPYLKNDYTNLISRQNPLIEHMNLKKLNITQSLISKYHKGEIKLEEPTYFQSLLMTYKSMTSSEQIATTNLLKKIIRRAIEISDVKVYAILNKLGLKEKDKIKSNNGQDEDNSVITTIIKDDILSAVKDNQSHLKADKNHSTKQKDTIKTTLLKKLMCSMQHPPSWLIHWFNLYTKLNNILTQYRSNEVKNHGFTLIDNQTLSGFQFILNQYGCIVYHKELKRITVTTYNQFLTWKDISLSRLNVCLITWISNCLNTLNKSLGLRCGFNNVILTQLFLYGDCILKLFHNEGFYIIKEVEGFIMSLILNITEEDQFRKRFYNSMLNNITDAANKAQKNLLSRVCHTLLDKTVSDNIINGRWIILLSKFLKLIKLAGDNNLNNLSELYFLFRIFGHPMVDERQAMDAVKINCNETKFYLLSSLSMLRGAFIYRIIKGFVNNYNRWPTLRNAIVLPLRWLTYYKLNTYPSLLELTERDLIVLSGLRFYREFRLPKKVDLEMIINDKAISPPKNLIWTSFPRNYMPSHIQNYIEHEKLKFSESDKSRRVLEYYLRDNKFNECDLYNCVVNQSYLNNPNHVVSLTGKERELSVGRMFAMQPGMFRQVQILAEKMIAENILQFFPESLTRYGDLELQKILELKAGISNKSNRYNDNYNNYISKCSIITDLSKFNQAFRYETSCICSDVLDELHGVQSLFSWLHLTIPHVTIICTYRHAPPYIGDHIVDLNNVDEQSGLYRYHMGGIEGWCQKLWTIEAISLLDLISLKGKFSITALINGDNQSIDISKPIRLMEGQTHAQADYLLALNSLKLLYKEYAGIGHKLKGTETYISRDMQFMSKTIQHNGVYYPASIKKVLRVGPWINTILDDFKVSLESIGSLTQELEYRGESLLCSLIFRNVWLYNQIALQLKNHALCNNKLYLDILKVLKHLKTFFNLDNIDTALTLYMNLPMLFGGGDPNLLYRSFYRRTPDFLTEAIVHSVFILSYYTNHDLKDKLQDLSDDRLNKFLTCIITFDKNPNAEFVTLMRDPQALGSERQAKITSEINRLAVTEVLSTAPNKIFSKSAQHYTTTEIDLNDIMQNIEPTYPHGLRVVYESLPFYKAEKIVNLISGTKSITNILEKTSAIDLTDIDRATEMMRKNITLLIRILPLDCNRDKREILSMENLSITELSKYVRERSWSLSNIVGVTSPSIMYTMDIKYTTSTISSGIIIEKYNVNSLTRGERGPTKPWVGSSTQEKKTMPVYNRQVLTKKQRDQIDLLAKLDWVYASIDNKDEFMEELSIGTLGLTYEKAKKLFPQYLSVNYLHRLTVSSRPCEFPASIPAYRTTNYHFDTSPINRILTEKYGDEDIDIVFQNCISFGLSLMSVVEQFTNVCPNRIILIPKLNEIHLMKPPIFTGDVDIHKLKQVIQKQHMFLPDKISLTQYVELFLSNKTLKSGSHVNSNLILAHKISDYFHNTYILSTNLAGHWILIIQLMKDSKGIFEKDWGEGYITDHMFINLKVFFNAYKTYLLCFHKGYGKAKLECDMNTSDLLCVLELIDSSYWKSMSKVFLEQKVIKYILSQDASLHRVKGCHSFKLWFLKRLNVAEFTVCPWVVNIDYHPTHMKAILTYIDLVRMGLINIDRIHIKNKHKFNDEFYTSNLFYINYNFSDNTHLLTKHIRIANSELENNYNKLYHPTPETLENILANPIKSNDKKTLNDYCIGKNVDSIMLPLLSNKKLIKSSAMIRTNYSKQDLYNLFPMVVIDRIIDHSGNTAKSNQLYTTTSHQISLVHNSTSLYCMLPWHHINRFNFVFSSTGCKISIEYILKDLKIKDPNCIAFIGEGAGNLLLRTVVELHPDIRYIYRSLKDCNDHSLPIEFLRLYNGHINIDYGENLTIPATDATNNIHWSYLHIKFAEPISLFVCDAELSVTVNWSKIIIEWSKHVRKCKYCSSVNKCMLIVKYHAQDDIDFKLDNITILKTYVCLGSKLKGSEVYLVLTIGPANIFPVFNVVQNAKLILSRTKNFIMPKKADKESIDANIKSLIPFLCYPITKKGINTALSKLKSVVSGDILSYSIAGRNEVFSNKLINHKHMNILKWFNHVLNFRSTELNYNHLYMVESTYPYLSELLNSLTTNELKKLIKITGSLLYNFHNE
Sequence of recombinant RSV complex (P03421 whole entry, further chain): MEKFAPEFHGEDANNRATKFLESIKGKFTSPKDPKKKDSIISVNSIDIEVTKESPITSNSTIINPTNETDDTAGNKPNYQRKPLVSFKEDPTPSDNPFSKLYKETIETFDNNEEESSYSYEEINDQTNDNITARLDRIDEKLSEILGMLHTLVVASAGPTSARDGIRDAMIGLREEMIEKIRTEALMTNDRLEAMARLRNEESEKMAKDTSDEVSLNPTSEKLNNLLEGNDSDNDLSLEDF

COc1cc(C(=O)NCC(O)(c2ccc(OC)c(-c3ccc(F)c(Cl)c3)n2)C(F)(F)F)ccc1OC1CCCC1=O (stereo not drawn) [Compound 257]
IC50 (recombinant RSV complex): < 1 µM | EC50 [1, 3]: < 1 µM | CC50 at 5 days [2]: 10 to 100 µM

COc1cc(C(=O)NCC(O)(c2cc3c(c(-c4ccc(F)c(Cl)c4)n2)OCC3(C)C)C(F)(F)F)cc2ccc(C(N)=O)nc12 (stereo not drawn) [Compound 214]
IC50 (recombinant RSV complex): < 1 µM | EC50 [1, 3]: < 1 µM | CC50 at 5 days [2]: 10 to 100 µM

COc1cc(C(=O)NCC(C)(CO)c2ccc(OC)c(-c3ccc(F)c(Cl)c3)n2)ccc1OCCO (stereo not drawn) [Compound 471]
IC50 (recombinant RSV complex): < 10 µM | EC50 [1, 3]: 1 to 50 µM | CC50 at 5 days [2]: 10 to 100 µM

COc1cc(C(=O)NCC(O)(c2ccc(OC)c(-c3ccc(F)c(Cl)c3)n2)C2CC2)ccc1OCC(N)=O (stereo not drawn) [Compound 429]
EC50 [1, 4]: < 1 µM | CC50 at 5 days [2]: 10 to 100 µM

COc1ccc(C(O)(CNC(=O)c2ccc3ncn(C)c3c2)C(F)(F)F)nc1-c1ccc(F)c(Cl)c1 (stereo not drawn) [Compound 264]
IC50 (recombinant RSV complex): < 1 µM | EC50 [1, 3]: 1 to 50 µM | CC50 at 5 days [2]: 10 to 100 µM

COc1ccc(C(=O)NCC(O)c2nc(-c3csc4c(F)cccc34)cn2C)cc1OC (stereo not drawn) [Compound 133]
EC50 [1, 4]: 1 to 50 µM | CC50 at 5 days [2]: 10 to 100 µM

COCC(C)(N)c1cc(-c2ccc(F)c(Cl)c2)nc(C(O)(CNC(=O)c2ccc(OCCO)c(OC)c2)C(F)(F)F)c1 (stereo not drawn) [Compound 541]
IC50 (recombinant RSV complex): < 1 µM | EC50 [1, 3]: < 1 µM | CC50 at 5 days [2]: 10 to 100 µM

COc1cc(C(=O)NCC(O)(c2cc(C(C)(C)N)cc(-c3ccc(F)c(Cl)c3)n2)C(F)(F)F)ccc1O[C@@H]1CCNC1=O (stereo partly drawn) [Compound 285]
IC50 (recombinant RSV complex): < 1 µM | EC50 [1, 3]: < 1 µM | CC50 at 5 days [2]: 10 to 100 µM

COc1cc(C(=O)NCC(O)(c2ccc(OC)c(-c3ccc(F)c(Cl)c3)n2)C2CC2)ccc1CCCO (stereo not drawn) [Compound 426]
IC50 (recombinant RSV complex): < 10 µM | EC50 [1, 3]: < 1 µM | CC50 at 5 days [2]: 10 to 100 µM

COc1cc(C(=O)NC[C@@](O)(c2cc(C(C)(C)N)cc(-c3ccc(F)cc3)n2)C(F)(F)F)ccc1OCCO [Compound 553]
IC50 (recombinant RSV complex): < 1 µM | EC50 [1, 3]: < 1 µM | CC50 at 5 days [2]: 10 to 100 µM

COc1cc(C(=O)NCC(=O)c2cc3c(c(-c4ccc(F)c(Cl)c4)n2)OCC3(C)C)cc2c(C)ccnc12 [Compound 229]
EC50 [1, 4]: 1 to 50 µM | CC50 at 5 days [2]: > 100 µM

COc1cc(C(=O)NCC(O)(c2cc3c(c(-c4ccc(C(F)(F)F)nc4)n2)OCC3(C)N)C(F)(F)F)ccc1OCCO (stereo not drawn) [Compound 673]
IC50 (recombinant RSV complex): < 10 µM | EC50 [1, 3]: 1 to 50 µM | CC50 at 5 days [2]: > 100 µM

COc1cc(C(=O)NCC(=O)c2cc3c(C)coc3c(-c3ccc(F)c(Cl)c3)n2)ccc1OC1CC1 [Compound 474]
IC50 (recombinant RSV complex): < 1 µM | EC50 [1, 3]: < 1 µM | CC50 at 5 days [2]: > 100 µM

COc1ccc(C(O)(CNC(=O)c2ccc(OC3CCNC3=O)cc2)C(F)(F)F)nc1-c1ccc(F)c(Cl)c1 (stereo not drawn) [Compound 261]
IC50 (recombinant RSV complex): < 1 µM | EC50 [1, 3]: < 1 µM | CC50 at 5 days [2]: 10 to 100 µM

Cc1nc(C(=O)NCC(O)(c2cc(C(C)(C)N)cc(-c3ccc(F)cc3)n2)C(F)(F)F)co1 (stereo not drawn) [Compound 607]
IC50 (recombinant RSV complex): < 10 µM | EC50 [1, 3]: 1 to 50 µM | CC50 at 5 days [2]: 10 to 100 µM

COc1ccc(C(=O)NCC(O)c2cc(C)cc(-c3csc4c(F)cccc34)n2)cc1OC (stereo not drawn) [Compound 111]
EC50 [1, 4]: 1 to 50 µM | CC50 at 5 days [2]: 10 to 100 µM

CC1(C)COc2c1cc(C(O)(CNC(=O)c1cc(O)c3ncccc3c1)C(F)(F)F)nc2-c1ccc(F)c(Cl)c1 (stereo not drawn) [Compound 207]
IC50 (recombinant RSV complex): < 1 µM | EC50 [1, 3]: 1 to 50 µM | CC50 at 5 days [2]: 10 to 100 µM

COc1cc(C(=O)NCC(O)(CN2CCNC(=O)C2)c2ccc(OC)c(-c3ccc(F)c(Cl)c3)n2)ccc1OCCO (stereo not drawn) [Compound 182]
IC50 (recombinant RSV complex): < 1 µM | EC50 [1, 3]: < 1 µM | CC50 at 5 days [2]: > 100 µM

COc1cc(C(=O)NCC(O)(c2ccc(OC)c(-c3ccc(F)cc3)n2)C(F)(F)F)ccc1OCCO (stereo not drawn) [Compound 619]
IC50 (recombinant RSV complex): < 1 µM | EC50 [1, 3]: < 1 µM | CC50 at 5 days [2]: 10 to 100 µM

COc1ccc(C(=O)NCC(O)c2nc(-c3csc4c(F)cccc34)c[nH]2)cc1OC (stereo not drawn) [Compound 132]
EC50 [1, 4]: 1 to 50 µM | CC50 at 5 days [2]: 10 to 100 µM

CNC(=O)COc1ccc(C(=O)NCC(C)(O)c2cccc(-c3ccc(F)c(Cl)c3)n2)cc1OC (stereo not drawn) [Compound 121]
EC50 [1, 4]: 1 to 50 µM | CC50 at 5 days [2]: > 100 µM

COc1cc(-c2csc3c(F)cccc23)nc(C(O)CNC(=O)c2ccc(OC)c(OC)c2)c1 (stereo not drawn) [Compound 100]
EC50 [1, 4]: 1 to 50 µM | CC50 at 5 days [2]: 10 to 100 µM

COc1cc(C(=O)NCC(O)(c2ccc(OC)c(-c3ccc(F)c(Cl)c3)n2)C(F)(F)F)ccc1OC1CCCNC1=O (stereo not drawn) [Compound 340]
EC50 [1, 4]: < 1 µM | CC50 at 5 days [2]: 10 to 100 µM

COc1cc(C(=O)NCC(O)(c2ccc(OC)c(-c3ccc(F)c(Cl)c3)n2)C2CC2)ccc1CCO (stereo not drawn) [Compound 433]
EC50 [1, 4]: < 1 µM | CC50 at 5 days [2]: 10 to 100 µM

COc1ccc(C(=O)NCC(O)c2nc(-c3csc4c(F)cccc34)cs2)cc1OC (stereo not drawn) [Compound 134]
EC50 [1, 4]: 1 to 50 µM | CC50 at 5 days [2]: 10 to 100 µM

COc1ccc(C(=O)NCC(O)(c2ccc(OC)c(-c3ccc(F)c(Cl)c3)n2)C(F)(F)F)cc1OC (stereo not drawn) [Compound 337]
EC50 [1, 3]: 1 to 50 µM | CC50 at 5 days [2]: 10 to 100 µM

COc1cc(C(=O)NCC(O)(c2cc(C(C)(C)N)cc(-c3ccc(F)c(Cl)c3)n2)C(F)(F)F)ccc1OCc1nnn[nH]1 (stereo not drawn) [Compound 616]
IC50 (recombinant RSV complex): < 10 µM | CC50 at 5 days [2]: > 100 µM

CCCn1nc(C(O)CNC(=O)c2ccc(OC)c(OC)c2)nc1-c1csc2c(F)cccc12 (stereo not drawn) [Compound 107]
EC50 [1, 4]: 1 to 50 µM | CC50 at 5 days [2]: 10 to 100 µM

COc1ccc(C(=O)NCC(O)c2csc(-c3csc4c(F)cccc34)n2)cc1OC (stereo not drawn) [Compound 108]
EC50 [1, 4]: 1 to 50 µM | CC50 at 5 days [2]: > 100 µM

COc1cc(C(=O)NC[C@](O)(c2cc3c(c(-c4ccc(C#N)cc4)n2)OC[C@@]3(C)N)C(F)(F)F)ccc1OCCO [Compound 604c]
IC50 (recombinant RSV complex): < 10 µM | CC50 at 5 days [2]: 10 to 100 µM

CCOC(=O)COc1ccc(C(=O)NCC(O)(c2cc(C(C)(C)N)cc(-c3ccc(F)c(Cl)c3)n2)C(F)(F)F)cc1OC (stereo not drawn) [Compound 617]
IC50 (recombinant RSV complex): < 1 µM | CC50 at 5 days [2]: 10 to 100 µM

COc1cc(C(=O)NCC2(c3ccc(OC)c(-c4ccc(F)c(Cl)c4)n3)CNC(=O)O2)ccc1OCCO (stereo not drawn) [Compound 180]
IC50 (recombinant RSV complex): < 100 µM | CC50 at 5 days [2]: > 100 µM

COc1ccc(C(=O)NCC(O)c2nc(-c3csc4c(F)cccc34)n3ccccc23)cc1OC (stereo not drawn) [Compound 113]
EC50 [1, 4]: 1 to 50 µM | CC50 at 5 days [2]: 10 to 100 µM

COc1cc(C(O)CNC(=O)c2ccc(OC)c(OC)c2)nc(-c2csc3c(F)cccc23)n1 (stereo not drawn) [Compound 112]
EC50 [1, 4]: 1 to 50 µM | CC50 at 5 days [2]: 10 to 100 µM

CC(C)(N)c1cc(-c2ccc(F)cc2)nc(C(O)(CNC(=O)c2cnc[nH]2)C(F)(F)F)c1 (stereo not drawn) [Compound 613]
IC50 (recombinant RSV complex): < 10 µM | CC50 at 5 days [2]: > 100 µM

COc1cc(-c2csc3c(F)cccc23)nc(C(O)CNC(=O)c2ccc(OC)c(OC)c2)n1 (stereo not drawn) [Compound 131]
EC50 [1, 4]: 1 to 50 µM | CC50 at 5 days [2]: 10 to 100 µM
